Key:
tPA = tPA (Homo sapiens, UniProt P00750); assay: in vitro serine protease inhibition profile: tPA; format: biochemical
KLK2 = KLK2 (Homo sapiens, UniProt P20151); assay: in vitro serine protease inhibition profile: KLK2; format: biochemical
FXIIa = target: T1, FXIIa (Homo sapiens, UniProt P00748); assay: in vitro serine protease inhibition profile: FXIIa; format: biochemical
T1 construct: panel of serine proteases: uPA, tPA, thrombin, plasmin, FXIIa

ocular tissue damage = assay: rat dry eye model, ocular surface damage by fluorescein staining; format: in vivo; details: dry eye rats
Experimental: (§1) Female Wistar rats (200-300 g, Janvier, Roubaix, France) were kept under standard pathogen-free conditions. Husbandry conditions: room temperature 20-25° C., humidity 50-60% and a day-night cycle of 12 h light/12 h dark. Food and water were available ad libitum. All in vivo manipulations were approved by the Animal Ethical Committee of the University of Antwerp (2013-67) and are in accordance to the ARRIVE guidelines for the use of animals in ophthalmic and vision research.
To remove the exorbital lacrimal gland, animals were anesthetized with an intraperitoneal injection of 25 mg/kg ketamine (Anesketin®, Eurovet, Bladel, Netherlands) and 2.5 mg/kg xylazine (Rompun®, Bayer, Leverkusen, Germany). Routine manipulations (tear collection, fluorescein staining) were performed after induction with 5% isoflurane (Halocarbon®, New Jersey, USA), followed by a maintenance dosage of 1.5%.
(§2) To remove the gland, a small incision was made beneath the right ear. The lacrimal glands of the left eye were kept intact, leaving each animal with its own individual control and eliminating the need for extra control groups. Progression of dry eye was monitored for 24 days and tear volume measurements and fluorescein staining were performed once a week. Tears were collected twice a week.
Sodium-fluorescein (1%, Sigma-Aldrich, Seelze, Germany) in phosphate buffered saline (PBS, Gibco® by LifeTechnologies Europe, Gent, Belgium) was administered topically to the surface of the eye. To avoid false positives, eyes were rinsed after one minute with PBS and excess fluorescein was removed by placing filter paper in the lateral cantus of the eye. The eye was photographed with a microscopic lens (Photo adapter 1.0 MC 80 DX-Axiovert 25 CA, Carl Zeiss AB, Gottingen, Germany) in a darkened room under cobalt blue light. Using the Oxford fluorescein grading scale, scores from 0 to 5 were given to each eye, depending on ocular staining intensity. Semi-quantitative scoring was done in a blind manner by three independent observers. Evaluation of ocular surface damage was performed every week.
(§3) Tear fluid was obtained twice a week. Tear volume and tissue damage was evaluated once a week. Animals were treated with Restasis® (2×/day), UAMC50, UAMC1162, UAMC1169/vehicle (2×/day) for 3 consecutive weeks. Compounds 1, 2 and 4 were formulated as follows: […]

tryptase = tryptase (Homo sapiens, UniProt Q15661); assay: in vitro serine protease inhibition profile: tryptase; format: biochemical
[1] = tested on: TNF-α and IL-1α in tear fluid; assay: rat dry eye model, pro-inflammatory cytokines in tear fluid; format: in vivo; details: dry eye rats
Experimental: as §1, §2
Tear fluid was collected once a week with 10 μl capillaries (Blaubrand® Intramark, Wertheim, Germany) connected with a flexible tube to a syringe. […]
TNF-α and IL-1α concentrations in tear fluid were measured flow cytometrically (FACS calibur, BD Biosciences), using Cytometric Bead Array (CBA) according to the manufacturers protocol (Rat IL-1α and TNF-α CBA flex sets, BD Biosciences, Erembodegem Belgium.
Tear fluid was obtained twice a week. Tear volume and tissue damage was evaluated once a week. […]

[2] = rat dry eye model, aqueous tear production (phenol red thread); format: in vivo; details: dry eye rats, 2 concentrations
Experimental: as §1, §2
A phenol red thread (Zone Quick®, Menicon Co. Ltd, Nagoya, Japan) was placed in the lateral cantus of the conjunctival fornix for 15 seconds. […] Tear fluid volumes were measured once a week.
as §3

[3] = 5 mM formulation, 2x/day, FIG. 4

T1 sequence (P00748 373-615 limits assumed, other chains not shown): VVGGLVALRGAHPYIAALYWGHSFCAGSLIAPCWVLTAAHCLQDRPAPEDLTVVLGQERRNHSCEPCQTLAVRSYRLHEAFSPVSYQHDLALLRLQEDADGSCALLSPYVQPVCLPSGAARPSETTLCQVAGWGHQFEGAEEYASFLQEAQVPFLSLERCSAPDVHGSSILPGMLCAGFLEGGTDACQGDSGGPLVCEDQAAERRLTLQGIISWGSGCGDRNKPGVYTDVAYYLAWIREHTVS
Sequence of tryptase (Q15661 31-275): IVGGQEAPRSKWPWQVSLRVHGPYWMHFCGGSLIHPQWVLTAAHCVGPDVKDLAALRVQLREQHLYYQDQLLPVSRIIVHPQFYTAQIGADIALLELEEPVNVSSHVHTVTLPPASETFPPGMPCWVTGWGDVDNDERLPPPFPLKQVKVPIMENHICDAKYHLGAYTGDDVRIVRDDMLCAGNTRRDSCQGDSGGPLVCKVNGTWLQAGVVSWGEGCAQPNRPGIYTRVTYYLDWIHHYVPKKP
Sequence of tPA (P00750 36-562, species assumed): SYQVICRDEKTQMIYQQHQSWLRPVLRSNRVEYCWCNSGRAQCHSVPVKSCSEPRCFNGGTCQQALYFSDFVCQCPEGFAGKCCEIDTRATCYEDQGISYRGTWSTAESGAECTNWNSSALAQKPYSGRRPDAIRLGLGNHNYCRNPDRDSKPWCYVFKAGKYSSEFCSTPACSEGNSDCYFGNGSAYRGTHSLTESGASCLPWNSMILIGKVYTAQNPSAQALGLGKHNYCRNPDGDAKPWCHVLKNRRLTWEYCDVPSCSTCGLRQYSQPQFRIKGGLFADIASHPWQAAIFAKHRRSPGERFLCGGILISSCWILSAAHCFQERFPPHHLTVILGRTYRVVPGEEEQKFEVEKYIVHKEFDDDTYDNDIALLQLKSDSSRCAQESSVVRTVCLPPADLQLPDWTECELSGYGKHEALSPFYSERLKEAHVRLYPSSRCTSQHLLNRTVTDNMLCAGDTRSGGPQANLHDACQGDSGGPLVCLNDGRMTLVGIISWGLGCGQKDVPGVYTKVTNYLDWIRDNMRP
Sequence of KLK2 (P20151 25-261, species assumed): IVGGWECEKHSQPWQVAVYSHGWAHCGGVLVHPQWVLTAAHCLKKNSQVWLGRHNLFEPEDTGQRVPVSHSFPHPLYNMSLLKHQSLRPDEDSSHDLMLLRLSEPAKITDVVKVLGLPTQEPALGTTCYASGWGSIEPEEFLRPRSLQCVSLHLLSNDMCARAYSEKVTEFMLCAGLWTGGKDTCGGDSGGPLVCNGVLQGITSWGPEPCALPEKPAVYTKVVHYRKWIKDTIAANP

| SMILES | IC50 (tPA) | IC50 (KLK2) | IC50 (FXIIa) | effect on ocular tissue damage (ocular tissue damage; [3]) | IC50 (tryptase) | anti-inflammatory effect on IL-1α and TNF-α in tear fluid ([1]; 5 mM) | anti-inflammatory effect on IL-1α and TNF-α in tear fluid ([1]; two concentrations, compared with Restasis, FIGS. 6 and 7) | effect on tear volume [2] | tissue damage scores (ocular tissue damage; follow-up experiments, 5 mM and 500 μM, vs untreated, vehicle, Restasis, FIG. 5) | effect on ocular tissue damage (ocular tissue damage; lower dose (500 μM), day 21) |
| --- | --- | --- | --- | --- | --- | --- | --- | --- | --- | --- |
| COC(=O)NC(Cc1ccc(NC(=N)N)cc1)P(=O)(Oc1ccccc1)Oc1ccccc1 (stereo not drawn) [Compound 1] | > 2500 nM | > 2500 nM | > 2500 nM | no effect | 93 nM |  |  |  |  |  |
| CC(=O)Nc1ccc(OP(=O)(Oc2ccc(NC(C)=O)cc2)C(Cc2ccc(NC(=N)N)cc2)NC(=O)OCc2ccccc2)cc1 (stereo not drawn) [Compound 4] | > 2500 nM | 115 nM | 1610 nM | superior effect on ocular tissue damage | 5 nM | significant anti-inflammatory effect | overall stronger anti-inflammatory effect and faster onset of action effect than Restasis© | no significant effects have been observed on tear volume | lower tissue damage scores | failed to provide an effect on day 21 |
